Laboratory results reported in PubChem BioAssay AID2060625 (Molecular Pharmacology Branch, DTP, NCI, 2025).
pIC50: −log10 of the molar value.

Test system: 186277-243-T-J2-PDC spheroids with HUVEC/MSC, viability
Experiment: Anticancer human tumor 186277-243-T-J2-PDC patient-derived colon adenocarcinoma cell line growth inhibition [CLK]
Conditions: for pIC50: curve of first compound; for viability, T/C: stronger effect = lower value; active = viability on the fitted dose curve at most 10% of control; inactive = the rest
In short: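 Multi-cell-type spheroids combined patient-derived tumor cells with HUVEC endothelial cells and human mesenchymal stem cells. Paired agents were dosed in half-log steps down from about clinical Cmax, or from 10 microM where Cmax was unknown.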
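Note: compound exposure lasted seven days before readout.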
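Throughout, for viability, T/C: 100% = DMSO vehicle control wells.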

NC(=O)C(=Cn1cnc(-c2cc(C(F)(F)F)cc(C(F)(F)F)c2)n1)c1cncnc1 + CN1CCN(c2cc(C(=O)Nc3cc4cc(-c5cnn(C)c5)ccc4cn3)ccn2)CC1
active: viability, T/C (second compound 0.0316 µM, first compound 0.3 µM) 5.69% | viability, T/C (second compound 0.0316 µM, first compound 0.949 µM) 1.85% | viability, T/C (second compound 0.0316 µM, first compound 3 µM) 2.91% | viability, T/C (second compound 0.1 µM, first compound 0.3 µM) 1.94% | viability, T/C (second compound 0.1 µM, first compound 0.949 µM) 0.71% | viability, T/C (second compound 0.1 µM, first compound 3 µM) 1.36% | viability, T/C (second compound 0.316 µM, first compound 0.00949 µM) 9.76% | viability, T/C (second compound 0.316 µM, first compound 0.03 µM) 4.11% | viability, T/C (second compound 0.316 µM, first compound 0.0949 µM) 0.34% | viability, T/C (second compound 0.316 µM, first compound 0.3 µM) 0.6% | viability, T/C (second compound 0.316 µM, first compound 0.949 µM) 0.58% | viability, T/C (second compound 0.316 µM, first compound 3 µM) 0.92% | viability, T/C (second compound 1 µM, first compound 0.00949 µM) 1% | viability, T/C (second compound 1 µM, first compound 0.03 µM) 1.1% | viability, T/C (second compound 1 µM, first compound 0.0949 µM) 0.81% | viability, T/C (second compound 1 µM, first compound 0.3 µM) 0.47% | viability, T/C (second compound 1 µM, first compound 0.949 µM) 0.34% | viability, T/C (second compound 1 µM, first compound 3 µM) 3.14% | viability, T/C (second compound 3.16 µM, first compound 0.00949 µM) 1.66% | viability, T/C (second compound 3.16 µM, first compound 0.03 µM) 1.29% | viability, T/C (second compound 3.16 µM, first compound 0.0949 µM) 1.77% | viability, T/C (second compound 3.16 µM, first compound 0.3 µM) 1.67% | viability, T/C (second compound 3.16 µM, first compound 0.949 µM) 1.12% | viability, T/C (second compound 3.16 µM, first compound 3 µM) 1.92% | viability, T/C (second compound 10 µM, first compound 0.00949 µM) 1.29% | viability, T/C (second compound 10 µM, first compound 0.03 µM) 1.77% | viability, T/C (second compound 10 µM, first compound 0.0949 µM) 1.3% | viability, T/C (second compound 10 µM, first compound 0.3 µM) 0.74% | viability, T/C (second compound 10 µM, first compound 0.949 µM) 1.71% | viability, T/C (second compound 10 µM, first compound 3 µM) 1.04%
inactive: viability, T/C (second compound 0.0316 µM, first compound 0.00949 µM) 98.3% | viability, T/C (second compound 0.0316 µM, first compound 0.03 µM) 83.4% | viability, T/C (second compound 0.0316 µM, first compound 0.0949 µM) 65.4% | viability, T/C (second compound 0.1 µM, first compound 0.00949 µM) 61.6% | viability, T/C (second compound 0.1 µM, first compound 0.03 µM) 60.9% | viability, T/C (second compound 0.1 µM, first compound 0.0949 µM) 13.1%
> 8.02: pIC50 (second compound 0.316 µM) | pIC50 (second compound 1 µM) | pIC50 (second compound 3.16 µM) | pIC50 (second compound 10 µM)
6.90: pIC50 (second compound 0.0316 µM)
7.41: pIC50 (second compound 0.1 µM)

Nc1ccccc1NC(=O)c1ccc(CNC(=O)OCc2cccnc2)cc1 + CN1CCN(c2cc(C(=O)Nc3cc4cc(-c5cnn(C)c5)ccc4cn3)ccn2)CC1
> 7.50: pIC50 (second compound 0.316 µM) | pIC50 (second compound 1 µM) | pIC50 (second compound 3.16 µM) | pIC50 (second compound 10 µM)
inactive: viability, T/C (second compound 0.0316 µM, first compound 0.0316 µM) 110% | viability, T/C (second compound 0.0316 µM, first compound 0.1 µM) 90.6% | viability, T/C (second compound 0.0316 µM, first compound 0.316 µM) 92.7% | viability, T/C (second compound 0.0316 µM, first compound 1 µM) 101% | viability, T/C (second compound 0.0316 µM, first compound 3.16 µM) 57% | viability, T/C (second compound 0.1 µM, first compound 0.0316 µM) 84.4% | viability, T/C (second compound 0.1 µM, first compound 0.1 µM) 78% | viability, T/C (second compound 0.1 µM, first compound 0.316 µM) 77.3% | viability, T/C (second compound 0.1 µM, first compound 1 µM) 65.3% | viability, T/C (second compound 0.1 µM, first compound 3.16 µM) 25.8% | viability, T/C (second compound 0.316 µM, first compound 0.0316 µM) 22.3% | viability, T/C (second compound 0.316 µM, first compound 0.1 µM) 19.1% | viability, T/C (second compound 0.316 µM, first compound 0.316 µM) 15.2% | viability, T/C (second compound 0.316 µM, first compound 1 µM) 15.9%
active: viability, T/C (second compound 0.0316 µM, first compound 10 µM) 7.85% | viability, T/C (second compound 0.1 µM, first compound 10 µM) 2.96% | viability, T/C (second compound 0.316 µM, first compound 3.16 µM) 2.42% | viability, T/C (second compound 0.316 µM, first compound 10 µM) 1.03% | viability, T/C (second compound 1 µM, first compound 0.0316 µM) 1.13% | viability, T/C (second compound 1 µM, first compound 0.1 µM) 1.4% | viability, T/C (second compound 1 µM, first compound 0.316 µM) 0.97% | viability, T/C (second compound 1 µM, first compound 1 µM) 1.21% | viability, T/C (second compound 1 µM, first compound 3.16 µM) 1.83% | viability, T/C (second compound 1 µM, first compound 10 µM) 0.7% | viability, T/C (second compound 3.16 µM, first compound 0.0316 µM) 1.82% | viability, T/C (second compound 3.16 µM, first compound 0.1 µM) 1.26% | viability, T/C (second compound 3.16 µM, first compound 0.316 µM) 0.87% | viability, T/C (second compound 3.16 µM, first compound 1 µM) 2.2% | viability, T/C (second compound 3.16 µM, first compound 3.16 µM) 1.61% | viability, T/C (second compound 3.16 µM, first compound 10 µM) 0.94% | viability, T/C (second compound 10 µM, first compound 0.0316 µM) 1.7% | viability, T/C (second compound 10 µM, first compound 0.1 µM) 0.57% | viability, T/C (second compound 10 µM, first compound 0.316 µM) 0.67% | viability, T/C (second compound 10 µM, first compound 1 µM) 2.12% | viability, T/C (second compound 10 µM, first compound 3.16 µM) 2.19% | viability, T/C (second compound 10 µM, first compound 10 µM) 0.39%
5.81: pIC50 (second compound 0.1 µM)
5.43: pIC50 (second compound 0.0316 µM)
